How the values were obtained:
[1] = Concentration required for 50% growth inhibition of primary malignant melanoma C8146A cell lines; assay type: functional, cell-based
[2] = target: T1, Protein S100-B (Homo sapiens, UniProt P04271); test: Binding to holo-S100B protein
T1 sequence (P04271 whole entry): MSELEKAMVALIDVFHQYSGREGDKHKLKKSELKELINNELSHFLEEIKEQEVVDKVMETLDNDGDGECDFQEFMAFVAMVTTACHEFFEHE

| SMILES | IC50 [1] [µM] | Kd [2] [µM] |
| --- | --- | --- |
| N=C(N)NC(=N)Nc1cccc(Cl)c1Cl | 8 | 2 |
| Cc1c(NS(=O)(=O)c2ccc(NC(=O)CCC(=O)O)cc2)c(=O)n(-c2ccccc2)n1C | > 100 | 4.5 |
| Cc1cc(C)c(N2C(=O)c3ccc(C(=O)Nc4cc(C(=O)O)cc(C(=O)O)c4)cc3C2=O)c(C)c1 | 44 | 120 |
| N=C(N)NC(=N)Nc1ccc(Cl)cc1C(=O)c1ccccc1 | 12 | 4.5 |
| O=C(O)c1cc(N/N=C/c2ccc(-c3ccc(Cl)c(C(=O)O)c3)o2)ccc1Cl | 49 | 18.3 |
| N=C(N)c1ccc(OCCCCCOc2ccc(C(=N)N)cc2)cc1 [PENTAMIDINE] | 1.2 | 1 |
| CC(C)(C)NC(=O)c1cccc(N2C(=O)c3ccc(C(=O)O)cc3C2=O)c1 | > 100 | 8.1 |

— ChEMBL document CHEMBL1138776, “Identification and characterization of small molecule inhibitors of the calcium-dependent S100B-p53 tumor suppressor interaction” (J Med Chem, 2004)
